Results from ChEMBL document CHEMBL1909046, “DrugMatrix in vitro pharmacology data”.

How the values were obtained:
[1] = target: Aldo-keto reductase family 1 member B1 (Rattus norvegicus, UniProt P07943); experiment: biochemical; type: tissue-based, Lens of camera-type eye;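 further: inhibition of aldose reductase enzyme activity, measured with DL-glyceraldehyde as the substrate; in other assays of this panel Not Active means under 50% inhibition at 10 µM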
Carbonic anhydrase 2 = Carbonic anhydrase 2 (Homo sapiens, UniProt P00918); experiment: DRUGMATRIX: Carbonic Anhydrase II enzyme inhibition (substrate: 4-Nitrophenyl acetate (4-NPA)); type: tissue-based, Erythrocyte; conditions: erythrocyte; Not Active = under 50% inhibition at 10 µM
[2] = target: C-C chemokine receptor type 5 (Homo sapiens, UniProt P51681); type: cell membranes, HEK293, Membrane; conditions: hek293; further: in other assays of this panel Not Active means under 50% inhibition at 10 µM
Chain of C-C chemokine receptor type 5 (P51681 whole entry): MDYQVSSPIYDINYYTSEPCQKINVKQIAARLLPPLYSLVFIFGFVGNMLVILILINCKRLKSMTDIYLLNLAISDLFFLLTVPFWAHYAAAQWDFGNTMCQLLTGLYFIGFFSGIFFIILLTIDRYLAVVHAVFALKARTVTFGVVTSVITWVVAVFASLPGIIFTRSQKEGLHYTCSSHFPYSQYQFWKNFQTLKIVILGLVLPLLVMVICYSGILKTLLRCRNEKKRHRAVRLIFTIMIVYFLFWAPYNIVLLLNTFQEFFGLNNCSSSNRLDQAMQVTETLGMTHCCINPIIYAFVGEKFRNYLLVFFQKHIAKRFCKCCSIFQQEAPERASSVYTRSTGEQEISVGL

Insulin receptor = Insulin receptor (Rattus norvegicus, UniProt P15127); type: cell membranes, Wistar, Liver, Membrane; further: in other assays of this panel Not Active means under 50% inhibition at 10 µM
Chain of Insulin receptor (P15127 27-759 limits assumed): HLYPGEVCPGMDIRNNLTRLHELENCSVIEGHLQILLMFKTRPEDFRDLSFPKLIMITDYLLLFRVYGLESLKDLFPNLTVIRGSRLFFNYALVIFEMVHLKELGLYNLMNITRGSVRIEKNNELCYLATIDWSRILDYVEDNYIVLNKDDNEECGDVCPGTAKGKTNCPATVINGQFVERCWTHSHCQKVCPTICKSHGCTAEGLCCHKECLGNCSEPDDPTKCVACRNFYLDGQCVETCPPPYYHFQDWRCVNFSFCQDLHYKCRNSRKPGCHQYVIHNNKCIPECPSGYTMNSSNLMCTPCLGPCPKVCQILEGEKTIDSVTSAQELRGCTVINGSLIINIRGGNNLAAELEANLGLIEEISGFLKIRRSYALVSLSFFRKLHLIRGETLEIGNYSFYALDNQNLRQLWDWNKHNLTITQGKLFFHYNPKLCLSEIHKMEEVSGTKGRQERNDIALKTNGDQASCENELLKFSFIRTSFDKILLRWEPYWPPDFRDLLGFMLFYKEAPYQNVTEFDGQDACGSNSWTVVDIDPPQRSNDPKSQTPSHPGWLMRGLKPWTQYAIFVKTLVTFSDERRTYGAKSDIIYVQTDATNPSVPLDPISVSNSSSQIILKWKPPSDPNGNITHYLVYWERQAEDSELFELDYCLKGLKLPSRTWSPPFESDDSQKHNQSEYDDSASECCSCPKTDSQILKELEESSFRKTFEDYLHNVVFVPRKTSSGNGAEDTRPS
Chain of Insulin receptor (P15127 764-1383 limits assumed): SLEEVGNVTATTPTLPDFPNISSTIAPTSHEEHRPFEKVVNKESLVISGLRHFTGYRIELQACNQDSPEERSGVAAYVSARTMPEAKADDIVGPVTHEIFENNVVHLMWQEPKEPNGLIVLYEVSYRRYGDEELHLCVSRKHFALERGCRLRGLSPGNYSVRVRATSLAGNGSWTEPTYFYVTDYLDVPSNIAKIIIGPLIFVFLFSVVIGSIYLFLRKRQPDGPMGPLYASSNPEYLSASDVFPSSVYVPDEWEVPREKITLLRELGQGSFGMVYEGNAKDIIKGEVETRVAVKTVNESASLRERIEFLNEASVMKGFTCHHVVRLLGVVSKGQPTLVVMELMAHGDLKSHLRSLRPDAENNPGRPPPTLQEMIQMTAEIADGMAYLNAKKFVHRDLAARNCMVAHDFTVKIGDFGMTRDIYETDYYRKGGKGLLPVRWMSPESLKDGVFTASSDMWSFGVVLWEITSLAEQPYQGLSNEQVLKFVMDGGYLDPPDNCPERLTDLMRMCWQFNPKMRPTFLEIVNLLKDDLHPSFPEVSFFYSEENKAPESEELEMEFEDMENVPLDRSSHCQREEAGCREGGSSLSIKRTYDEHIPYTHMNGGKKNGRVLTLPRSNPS

[3] = DRUGMATRIX: Leukotriene, BLT (LTB4) radioligand binding (ligand: [3H]LTB4); type: cell membranes, Membrane; conditions: u-937; Not Active = under 50% inhibition at 10 µM
[4] = target: T1, Cysteinyl leukotriene receptor 1 (Homo sapiens, UniProt Q9Y271); type: cell membranes, CHO-K1, Membrane; conditions: cho-k1; further: in other assays of this panel Not Active means under 50% inhibition at 10 µM
T1 sequence (Q9Y271 whole entry): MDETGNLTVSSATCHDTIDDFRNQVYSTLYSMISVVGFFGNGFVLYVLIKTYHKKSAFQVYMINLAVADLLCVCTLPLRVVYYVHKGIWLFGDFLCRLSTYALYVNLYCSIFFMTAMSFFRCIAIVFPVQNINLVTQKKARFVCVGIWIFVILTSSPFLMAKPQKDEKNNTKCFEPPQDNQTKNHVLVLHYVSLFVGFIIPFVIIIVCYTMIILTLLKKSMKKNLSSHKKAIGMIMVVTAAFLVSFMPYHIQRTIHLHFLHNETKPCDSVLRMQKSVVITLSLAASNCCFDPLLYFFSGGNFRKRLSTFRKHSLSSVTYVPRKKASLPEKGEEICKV

[5] = target: T2, Amine oxidase [flavin-containing] A (Homo sapiens, UniProt P21397); experiment: DRUGMATRIX: Monoamine Oxidase MAO-A enzyme inhibition (substrate: Kynuramine); set-up: species or system BTI-TN-5B1-4; conditions: bti-tn-5b1-4; Not Active = under 50% inhibition at 10 µM
T2 sequence (P21397 whole entry): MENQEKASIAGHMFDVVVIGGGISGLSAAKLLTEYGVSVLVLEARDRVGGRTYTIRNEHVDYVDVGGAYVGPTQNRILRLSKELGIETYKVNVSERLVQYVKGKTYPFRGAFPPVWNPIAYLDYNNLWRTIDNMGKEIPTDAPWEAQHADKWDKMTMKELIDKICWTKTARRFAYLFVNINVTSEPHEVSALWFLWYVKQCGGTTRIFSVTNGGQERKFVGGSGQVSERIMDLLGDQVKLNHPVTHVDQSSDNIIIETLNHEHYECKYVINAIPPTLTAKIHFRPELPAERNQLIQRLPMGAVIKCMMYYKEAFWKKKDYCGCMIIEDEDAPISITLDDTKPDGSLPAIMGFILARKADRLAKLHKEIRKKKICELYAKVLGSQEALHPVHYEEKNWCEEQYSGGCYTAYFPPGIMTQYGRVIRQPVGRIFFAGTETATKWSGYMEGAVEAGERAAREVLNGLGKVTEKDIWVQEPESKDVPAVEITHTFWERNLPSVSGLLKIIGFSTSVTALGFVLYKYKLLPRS

[6] = target: T3, Neuropeptide Y receptor type 2 (Homo sapiens, UniProt P49146); type: cell membranes, Membrane; conditions: kan-ts; further: in other assays of this panel Not Active means under 50% inhibition at 10 µM
T3 sequence (P49146 whole entry): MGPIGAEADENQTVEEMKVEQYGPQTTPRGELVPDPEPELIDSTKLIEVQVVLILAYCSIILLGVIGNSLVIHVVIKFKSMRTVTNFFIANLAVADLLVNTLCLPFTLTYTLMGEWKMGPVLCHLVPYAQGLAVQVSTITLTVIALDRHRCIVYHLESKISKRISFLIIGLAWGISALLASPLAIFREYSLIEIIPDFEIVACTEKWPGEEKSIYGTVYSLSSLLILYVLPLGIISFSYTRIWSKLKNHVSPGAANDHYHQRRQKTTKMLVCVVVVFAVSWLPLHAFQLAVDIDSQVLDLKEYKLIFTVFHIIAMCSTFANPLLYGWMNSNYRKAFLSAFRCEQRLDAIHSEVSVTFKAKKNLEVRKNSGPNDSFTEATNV

CCCCN1CCCCC1C(=O)Nc1c(C)cccc1C.Cl (stereo not drawn) [BUPIVACAINE HYDROCHLORIDE]
Not Active: IC50 [1] | IC50 (Carbonic anhydrase 2) | IC50 [2] | IC50 (Insulin receptor) | IC50 [3] | Ki [3] | IC50 [4] | IC50 [5] | IC50 [6]

O=C1CC2(CCCC2)CC(=O)N1CCCCN1CCN(c2ncccn2)CC1 [BUSPIRONE]
Not Active: IC50 [1] | IC50 (Carbonic anhydrase 2) | IC50 [2] | IC50 (Insulin receptor) | IC50 [3] | Ki [3] | IC50 [4] | IC50 [5] | IC50 [6]

C[C@@]12C(=O)OC(=O)[C@]1(C)[C@H]1CC[C@@H]2O1 [CANTHARIDIN]
Not Active: IC50 [1] | IC50 (Carbonic anhydrase 2) | IC50 [2] | IC50 (Insulin receptor) | IC50 [3] | Ki [3] | IC50 [4] | IC50 [5] | IC50 [6]

O=NN(CCCl)C(=O)NCCCl [CARMUSTINE]
Not Active: IC50 [1] | IC50 (Carbonic anhydrase 2) | IC50 [2] | IC50 (Insulin receptor) | IC50 [3] | Ki [3] | IC50 [4] | IC50 [5] | IC50 [6]

CC1=C(C(=O)O)N2C(=O)[C@@H](NC(=O)[C@H](N)c3ccccc3)[C@H]2SC1 [CEPHALEXIN ANHYDROUS]
Not Active: IC50 [1] | IC50 (Carbonic anhydrase 2) | IC50 [2] | IC50 (Insulin receptor) | IC50 [3] | Ki [3] | IC50 [4] | IC50 [5] | IC50 [6]

O=C(N[C@H](CO)[C@H](O)c1ccc([N+](=O)[O-])cc1)C(Cl)Cl [CHLORAMPHENICOL]
Not Active: IC50 [1] | IC50 (Carbonic anhydrase 2) | IC50 [2] | IC50 (Insulin receptor) | IC50 [3] | Ki [3] | IC50 [4] | IC50 [5] | IC50 [6]

ClC(Cl)Cl [CHLOROFORM]
Not Active: IC50 [1] | IC50 (Carbonic anhydrase 2) | IC50 [2] | IC50 (Insulin receptor) | IC50 [3] | Ki [3] | IC50 [4] | IC50 [5] | IC50 [6]

C=C1CC[C@H](O)C/C1=C/C=C1\CCC[C@]2(C)[C@@H]([C@H](C)CCCC(C)C)CC[C@@H]12 [CHOLECALCIFEROL]
Not Active: IC50 [1] | IC50 (Carbonic anhydrase 2) | IC50 [2] | IC50 (Insulin receptor) | IC50 [3] | Ki [3] | IC50 [4] | IC50 [5] | IC50 [6]

C[N+](C)(C)CCO.[Cl-] [CHOLINE CHLORIDE]
Not Active: IC50 [1] | IC50 (Carbonic anhydrase 2) | IC50 [2] | IC50 (Insulin receptor) | IC50 [3] | Ki [3] | IC50 [4] | IC50 [5] | IC50 [6]

CCOC(=O)C(C)(C)Oc1ccc(Cl)cc1 [CLOFIBRATE]
Not Active: IC50 [1] | IC50 (Carbonic anhydrase 2) | IC50 [2] | IC50 (Insulin receptor) | IC50 [3] | Ki [3] | IC50 [4] | IC50 [5] | IC50 [6]

CC(=O)OCC(=O)[C@@]1(O)CC[C@H]2[C@@H]3CCC4=CC(=O)CC[C@]4(C)[C@H]3C(=O)C[C@@]21C [CORTISONE ACETATE]
Not Active: IC50 [1] | IC50 (Carbonic anhydrase 2) | IC50 [2] | IC50 (Insulin receptor) | IC50 [3] | Ki [3] | IC50 [4] | IC50 [5] | IC50 [6]

O=c1ccc2ccccc2o1 [COUMARIN]
Not Active: IC50 [1] | IC50 (Carbonic anhydrase 2) | IC50 [2] | IC50 (Insulin receptor) | IC50 [3] | Ki [3] | IC50 [4] | IC50 [5] | IC50 [6]

C[C@@H]1C[C@@H]([C@H](O)CC2CC(=O)NC(=O)C2)C(=O)[C@@H](C)C1 [CYCLOHEXIMIDE]
Not Active: IC50 [1] | IC50 (Carbonic anhydrase 2) | IC50 [2] | IC50 (Insulin receptor) | IC50 [3] | Ki [3] | IC50 [4] | IC50 [5] | IC50 [6]

C/C=C/C[C@@H](C)[C@@H](O)[C@H]1C(=O)N[C@@H](CC)C(=O)N(C)CC(=O)N(C)[C@@H](CC(C)C)C(=O)N[C@@H](C(C)C)C(=O)N(C)[C@@H](CC(C)C)C(=O)N[C@@H](C)C(=O)N[C@H](C)C(=O)N(C)[C@@H](CC(C)C)C(=O)N(C)[C@@H](CC(C)C)C(=O)N(C)[C@@H](C(C)C)C(=O)N1C [CYCLOSPORINE]
Not Active: IC50 [1] | IC50 (Carbonic anhydrase 2) | IC50 [2] | IC50 (Insulin receptor) | IC50 [3] | Ki [3] | IC50 [4] | IC50 [5] | IC50 [6]

CN(C)/N=N/c1[nH]cnc1C(N)=O [DACARBAZINE]
Not Active: IC50 [1] | IC50 (Carbonic anhydrase 2) | IC50 [2] | IC50 (Insulin receptor) | IC50 [3] | Ki [3] | IC50 [4] | IC50 [5] | IC50 [6]

COc1ccc2c(c1)[C@]13CCCC[C@@H]1[C@H](C2)N(C)CC3 [DEXTROMETHORPHAN]
Not Active: IC50 [1] | IC50 (Carbonic anhydrase 2) | IC50 [2] | IC50 (Insulin receptor) | IC50 [3] | Ki [3] | IC50 [4] | IC50 [5] | IC50 [6]

CC(=O)Nc1c(I)c(NC(C)=O)c(I)c(C(=O)O)c1I [DIATRIZOIC ACID]
Not Active: IC50 [1] | IC50 (Carbonic anhydrase 2) | IC50 [2] | IC50 (Insulin receptor) | IC50 [3] | Ki [3] | IC50 [4] | IC50 [5] | IC50 [6]
